In ChEMBL document CHEMBL1138565, “Docking, 3D-QSAR studies and in silico ADME prediction on c-Src tyrosine kinase inhibitors” (Eur J Med Chem, 2009):

target: Proto-oncogene tyrosine-protein kinase Src (Homo sapiens, UniProt P12931); assay: Inhibition of c-Src
Sequence (P12931 2-536 limits assumed): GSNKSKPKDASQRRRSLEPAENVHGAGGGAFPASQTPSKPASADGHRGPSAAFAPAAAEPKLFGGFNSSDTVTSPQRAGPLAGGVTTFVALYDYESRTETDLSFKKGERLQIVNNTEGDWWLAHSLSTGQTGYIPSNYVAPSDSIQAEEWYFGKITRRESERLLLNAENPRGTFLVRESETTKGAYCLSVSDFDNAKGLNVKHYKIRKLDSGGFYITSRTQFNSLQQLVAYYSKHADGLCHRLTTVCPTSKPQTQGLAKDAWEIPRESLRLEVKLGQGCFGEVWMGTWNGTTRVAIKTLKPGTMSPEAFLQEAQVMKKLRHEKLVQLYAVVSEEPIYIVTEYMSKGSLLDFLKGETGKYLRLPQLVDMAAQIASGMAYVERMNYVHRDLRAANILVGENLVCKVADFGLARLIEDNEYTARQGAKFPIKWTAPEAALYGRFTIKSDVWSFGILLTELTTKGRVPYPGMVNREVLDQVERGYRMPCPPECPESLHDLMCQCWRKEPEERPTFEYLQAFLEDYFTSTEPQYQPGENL

IC50 [µM]	Ki [µM]	Compound
0.501		Nc1ncnc2c1c(-c1ccccc1)nn2-c1ccccc1
5.01		Nc1ncnc2c1c(-c1ccccc1)cn2[C@H](CO)c1ccccc1
0.01		Nc1ncnc2c1c(-c1ccccc1)cn2-c1cccc(CNCCO)c1
	3.16	ClC(Cn1ncc2c(NCc3ccccc3)ncnc21)c1ccccc1 (centres undefined)
7.94		Clc1ncnc2c1c(-c1ccccc1)cn2-c1ccccc1
	2	ClC(Cn1ncc2c(NCCc3ccccc3)ncnc21)c1ccccc1 (centres undefined)
6.31		COc1ccccc1-c1cn(-c2ccccc2)c2ncnc(N)c12
	0.794	CSc1nc(Nc2cccc(Cl)c2)c2cnn(CC(Cl)c3ccccc3)c2n1 (centres undefined)
0.0316		Nc1ncnc2c1c(-c1ccccc1)cn2-c1ccc(CNCCO)cc1
0.1		Nc1ncnc2c1c(-c1ccccc1)cn2-c1ccccc1
10		CNc1ncnc2c1c(-c1ccccc1)cn2-c1ccccc1
0.02		Nc1ncnc2c1c(-c1ccccc1)cn2-c1ccc(CO)cc1
5.01		Nc1ncnc2c1c(-c1ccccc1)cn2-c1ccccc1CNCCO
10		O=c1[nH]cnc2c1c(-c1ccccc1)cn2-c1ccccc1
	10	OC(Cn1ncc2c(NCc3ccc(F)cc3)ncnc21)c1ccccc1 (centres undefined)
	10	CCCNc1ncnc2c1cnn2CC(O)c1ccccc1 (centres undefined)
0.316		Nc1ncnc2c1c(-c1ccccc1)cn2-c1ccccc1CO
10		CCOC(=O)c1ccc(-c2cn(-c3ccccc3)c3ncnc(N)c23)cc1
	3.98	O=C(O)c1cnc2c(cnn2/C=C/c2ccccc2)c1NCc1ccccc1
0.501		Nc1ncnc2c1c(-c1ccccc1)cn2[C@@H](CO)c1ccccc1
0.2		Nc1ncnc2c1c(-c1cccc(Cl)c1)cn2-c1ccccc1
0.0631		Nc1ncnc2c1c(-c1ccccc1)cn2-c1cccc(CO)c1

Continued, compound first:

Compound	IC50 [µM]	Ki [µM]
COc1cccc(-c2cn(C3CCN(CCN(C)CCO)CC3)c3ncnc(N)c23)c1	0.00631	
Nc1ncnc2c1c(-c1ccc(O)cc1)cn2CC(CO)CO	0.501	
Nc1ncnc2c1c(-c1ccc(O)cc1)cn2C1CCC1	0.01	
Nc1ncnc2c1c(-c1ccccc1)cn2[C@@H]1CN[C@H](CO)C1	0.126	
COc1cccc(-c2cn(C3CCC3)c3ncnc(N)c23)c1	0.0398	
CCOC(=O)C[C@@H]1C[C@H](n2cc(-c3ccccc3)c3c(N)ncnc32)CN1	0.0158	
Nc1ncnc2c1c(-c1ccccc1)cn2CCC(CO)CO	2.51	
COc1cccc(-c2cn(-c3ccc(CCN4CCC(O)CC4)cc3)c3ncnc(N)c23)c1	0.02	
COc1cccc(-c2cn(C3CCN(CCO)CC3)c3ncnc(N)c23)c1	0.0251	
COc1ccc(-c2cn(C3CCC3)c3ncnc(N)c23)cc1	0.2	
COc1ccc(-c2cn(C3CCCC3)c3ncnc(N)c23)cc1	0.0794	
CC(C)(C)OC(=O)N1C[C@@H](n2cc(-c3ccccc3)c3c(N)ncnc32)C[C@H]1CO	2	
CC(C)(C)OC(=O)N1C[C@H](n2cc(-c3ccc(O)cc3)c3c(N)ncnc32)C[C@H]1CO	0.0251	
COC(=O)CN1CCC(n2cc(-c3cccc(O)c3)c3c(N)ncnc32)CC1	0.001	
CCOC(=O)C[C@@H]1C[C@H](n2cc(-c3ccc(O)cc3)c3c(N)ncnc32)CN1C(=O)OC(C)(C)C	0.316	
Nc1ncnc2c1c(-c1ccccc1)cn2C1CC1	0.251	
COc1cccc(-c2cn(CC(CO)CO)c3ncnc(N)c23)c1	0.316	
CN(C)C(=O)CN1CCC(n2cc(-c3cccc(O)c3)c3c(N)ncnc32)CC1	0.00316	
Nc1ncnc2c1c(-c1cccc(O)c1)cn2C1CCC1	0.00398	
COc1cccc(-c2cn(C3CCN(CC(=O)N(C)C)CC3)c3ncnc(N)c23)c1	0.0631	
COCCN(C)CCN1CCC(n2cc(-c3cccc(OC)c3)c3c(N)ncnc32)CC1	0.0501	
Nc1ncnc2c1c(-c1cccc(O)c1)cn2C1CCCC1	0.001	
Nc1ncnc2c1c(-c1ccc(O)cc1)cn2[C@H]1CN[C@H](CO)C1	0.1	
Nc1ncnc2c1c(-c1ccccc1)cn2CC(CO)CO	0.2	

Compound	IC50 [µM]	Ki [µM]
COc1cccc(-c2cn(-c3ccc(CCN(C)CCO)cc3)c3ncnc(N)c23)c1	0.0316	
CCOC(=O)C[C@@H]1C[C@@H](n2cc(-c3ccc(O)cc3)c3c(N)ncnc32)CN1C(=O)OC(C)(C)C	0.0316	
COc1cccc(-c2cn(C3CCN(CC(N)=O)CC3)c3ncnc(N)c23)c1	0.02	
COc1cccc(-c2cn(C3CCCC3)c3ncnc(N)c23)c1	0.002	
Nc1ncnc2c1c(-c1ccccc1)cn2[C@H]1CN[C@H](CO)C1	0.316	
COC(=O)CN1CCC(n2cc(-c3cccc(OC)c3)c3c(N)ncnc32)CC1	0.0794	
OCCNCCOc1ccc(-n2cc(-c3cccc(O)c3)c3cncnc32)cc1	0.0398	
Nc1ncnc2c1c(-c1ccccc1)cn2C1CCCC1	0.126	
CC(C)(C)OC(=O)N1C[C@H](n2cc(-c3ccccc3)c3c(N)ncnc32)C[C@H]1CO	0.126	
CCOC(=O)C[C@@H]1C[C@@H](n2cc(-c3ccc(O)cc3)c3c(N)ncnc32)CN1	0.1	
COc1cccc(-c2cn(-c3cccc(CO)c3)c3ncnc(N)c23)c1	0.0631	
CCOC(=O)C[C@@H]1C[C@@H](n2cc(-c3ccccc3)c3c(N)ncnc32)CN1C(=O)OC(C)(C)C	0.398	
CCOC(=O)C[C@@H]1C[C@@H](n2cc(-c3ccccc3)c3c(N)ncnc32)CN1	0.631	
Nc1ncnc2c1c(-c1ccc(O)cc1)cn2[C@@H]1CN[C@H](CO)C1	0.0501	
COc1cccc(-c2cn(-c3ccc(CNCCO)cc3)c3ncnc(N)c23)c1	0.0316	
CC(C)(C)OC(=O)N1C[C@@H](n2cc(-c3ccc(O)cc3)c3c(N)ncnc32)C[C@H]1CO	0.316	
CCOC(=O)C[C@@H]1C[C@H](n2cc(-c3ccccc3)c3c(N)ncnc32)CN1C(=O)OC(C)(C)C	5.01	
COc1ccc(-c2cn(-c3ccccc3)c3ncnc(N)c23)cc1	0.158	
Nc1ncnc2c1c(-c1ccccc1)cn2C1CCC1	0.1	
CCOC(=O)C[C@@H]1C[C@H](n2cc(-c3ccc(O)cc3)c3c(N)ncnc32)CN1	0.00501	
Nc1ncnc2c1c(-c1ccc(O)cc1)cn2C1CCCC1	0.02	
COc1cccc(-c2cn(-c3ccccc3)c3ncnc(N)c23)c1	0.0501	
COc1cccc(-c2cn(-c3ccc(CC(=O)NCCO)cc3)c3ncnc(N)c23)c1	0.02	
